Molecules are shown by their SMILES.

A short description of the data set: Human HepG2 cell viability assay in 384 well format. Type of data set: toxicity, cell-based. On the set-up: dose 125 nL, time 70.5 hour; concentration not given beside the values. Particulars: HepG2 cells, read-out: Inhibition.
`CCOC(=O)CNC(=O)c1cccnc1Oc1ccc(Cl)cc1`: the cytotoxicity at 70.5 h was -9.7%.
The result for `COC(=O)c1cnc2c(c(C)nn2C)c1OC` reads -3.27%; that for `N#Cc1c(F)cccc1N1CCC(NS(=O)(=O)c2cccs2)CC1`, 13.5%; that for `CC(C)c1nc(CN2CCN(C(=O)CN3CCOCC3)CC2)no1`, 28.7%.
The same measure for `CN(C)C(CNC(=O)c1nc(N2CCOCC2)ncc1Cl)c1ccco1` (configuration not stated): -19.3%.
For the molecule `CCCS(=O)(=O)NC(C)C(=O)NCc1ccc(N2CCCC2)nc1` (configuration not stated), the cytotoxicity at 70.5 h is -7.44%.
As to `O=S(=O)(NCc1cn2ccccc2n1)N1CCOCC1`, the cytotoxicity at 70.5 h was -12.1%.
The result for `CN1CCC(NC(=O)NCc2csc(Br)c2)CC1` reads -10.7%; that for `CN(C)c1nc(N)nc(CN2CCCC2c2ccsc2)n1` (configuration not stated), -7.29%; that for `COc1ccccc1OCCNc1snc(Cl)c1C#N`, -15.5%.
`O=C(CCNC(=O)c1ccc(Cl)cc1)NCc1nc(C2CC2)no1`: the cytotoxicity at 70.5 h was 19.3%.
Turning to `CCN(CC)S(=O)(=O)c1ccc(CCC(=O)NCc2cc(C)on2)cc1`, the cytotoxicity at 70.5 h was -7.82%.
For the molecule `Cc1ccsc1C(=O)NC1CCS(=O)(=O)c2ccccc21` (configuration not stated), the cytotoxicity at 70.5 h was -5.17%.
The result for `COc1cc(CNCC(O)c2ccc(F)c(F)c2)cc2c1OCO2` (configuration not stated) reads 29.9%.
The result for `Cc1ccc(C(=O)Nc2ccccc2F)n1C` reads -11.5%; that for `Cc1nc(CCNC(=O)NCc2ccc(N(C)C)nc2)cs1`, -8.72%; that for `COc1ccc(Cl)cc1NCC(=O)NCCNc1cnccn1`, -10.9%.
The same measure for `Cc1cccc(OC2CCN(C(=O)NCc3cc[nH]n3)CC2)c1C`: 0.923%.
`Cc1nn(CC(O)CN2CCc3ccccc3C2)c(=O)c(C#N)c1C` (configuration not stated): the cytotoxicity at 70.5 h was -19.9%.
The result for `CCOC(=O)CCCNC(=O)CN1CCN(c2ncccn2)CC1` reads -13.6%; that for `N#Cc1cccnc1N1CCN(C(=O)CCC(=O)c2cccs2)CC1`, 14.6%.
In the case of `CCc1c(C(=O)NCC2CCS(=O)(=O)C2)cnn1-c1ccc(C)cc1` (configuration not stated), the cytotoxicity at 70.5 h is -20%.
The result for `CCN(CC(=O)NC(C)C)S(=O)(=O)N1CCCCCC1` reads -5.99%; that for `O=C1NCCCCC1Sc1ccc(F)cc1F` (configuration not stated), 7.77%; that for `Cc1cc(=O)[nH]c(-n2nc(-c3ccccc3)cc2N)n1`, 12.5%.
`COc1ccc2nnc(CCC(=O)Nc3nc4c(s3)CCC4)n2n1`: the cytotoxicity at 70.5 h was -25.1%.
Take `CCN1CCN(C(C)CNC(=O)Nc2nnc(C)s2)CC1` (configuration not stated): the cytotoxicity at 70.5 h is -10.5%.
The result for `Cc1cc(NC(=O)NCC2CCN(C(C)C)C2)no1` (configuration not stated) reads -5.36%; that for `COc1ccc2oc(C(C)NC(=O)NC3CCN(C)CC3)c(C)c2c1` (configuration not stated), -13.4%.
The result for `CCS(=O)(=O)NCCNc1cc(-n2cccc2)ncn1` reads -0.787%.
The same measure for `O=S(=O)(NCCNc1cc(-n2cccc2)ncn1)c1cccs1`: -2.52%; for `CS(=O)(=O)N1CCN(c2cc(-n3cccc3)ncn2)CC1`: -4.46%.
Turning to `CC(=O)OC1CN(c2nc3c(Cl)cccc3s2)C1`, the cytotoxicity at 70.5 h is -9.84%.
Regarding `CC(=O)OC1CN(c2nc3c(C)cccc3s2)C1`, the cytotoxicity at 70.5 h was -15.1%.
The same measure for `CNC(=O)c1ccc2c(OC)n(C)nc2c1`: -1.72%.
The same measure for `CN(C)CC1CSCCCN1C(=O)c1cccc(C(F)(F)F)c1` (configuration not stated): 3.74%; for `CN(C)CC1CSCCCN1S(=O)(=O)Cc1ccc(C(F)(F)F)cc1` (configuration not stated): -0.0412%; for `Cc1cccc(C(=O)N2CCCSCC2CN2CCCC2)c1` (configuration not stated): -0.415%.
The result for `CSc1ccccc1NC(=O)C1CSc2ncc(C)c(=O)n2C1` (configuration not stated) reads -10.7%.
As to `COc1ccc(C)cc1NC(=O)C1CSc2ncc(C)c(=O)n2C1` (configuration not stated), the cytotoxicity at 70.5 h was 8.57%.
Turning to `Cc1cnc2n(c1=O)CC(C(=O)Nc1ccon1)CS2` (configuration not stated), the cytotoxicity at 70.5 h was -13.7%.
The result for `CCc1c(C)nc2n(c1=O)CC(C(=O)Nc1ccccc1C)CS2` (configuration not stated) reads 4.11%.
The result for `CCc1c(C)nc2n(c1=O)CC(C(=O)Nc1ncccc1C)CS2` (configuration not stated) reads -8.04%.
The same measure for `COc1cc(C(=O)NCCc2ccccc2OC)on1`: -1.09%; for `COc1cc(C(=O)NCCc2ccc(Cl)cc2)on1`: 0.265%.
Consider `O=S(=O)(NCC(O)c1ccc2c(c1)CCO2)c1ccccc1F` (configuration not stated), for which the cytotoxicity at 70.5 h is -13.3%.
Take `O=C(NCC1(O)CCc2ccccc2C1)c1cccs1` (configuration not stated): the cytotoxicity at 70.5 h was -14.5%.
For the molecule `O=C(Cn1c(=O)oc2ccccc21)NCC1(O)CCc2ccccc2C1` (configuration not stated), the cytotoxicity at 70.5 h is -2.64%.
The result for `O=C(NCc1cccs1)NCC1(O)CCc2ccccc2C1` (configuration not stated) reads -5.04%; that for `COCCN(Cc1ccoc1)C(=O)c1ccccn1`, -3.55%; that for `COCCN(Cc1ccoc1)C(=O)c1c(F)cccc1F`, -3.64%.
Take `CCOc1ccc(S(=O)(=O)N(CCOC)Cc2ccoc2)cc1F`: the cytotoxicity at 70.5 h was -11.6%.
The result for `O=S(=O)(NCCC(O)c1ccoc1)c1ccc(Cl)s1` (configuration not stated) reads -0.192%; that for `COC(=O)c1sccc1S(=O)(=O)NCCC(O)c1ccoc1` (configuration not stated), -0.756%; that for `O=C(NCCC(O)c1ccoc1)Nc1cccs1` (configuration not stated), -9.28%.
The result for `COC1(CNC(=O)c2ccsc2)CCSC1` (configuration not stated) reads -13%.
For `COC1(CNC(=O)CCCc2ccccc2)CCSC1` (configuration not stated), the cytotoxicity at 70.5 h was -0.238%.
The result for `COC1(CNC(=O)c2ccc3nsnc3c2)CCSC1` (configuration not stated) reads -18.3%; that for `COC1(CNC(=O)c2ccc(Cl)c(Cl)c2)CCSC1` (configuration not stated), -15%.
Take `COC1(CNS(=O)(=O)c2ccccc2Cl)CCSC1` (configuration not stated): the cytotoxicity at 70.5 h was -7.26%.
The result for `COC1(CNC(=O)NCc2ccccc2)CCSC1` (configuration not stated) reads -9.9%; that for `COC1(CNC(=O)NCCOc2ccccc2)CCSC1` (configuration not stated), 1.02%; that for `Cc1cccnc1NC(=O)c1ccc(-n2cncn2)nn1`, 1.65%.
As for `O=C(NCCn1nc(-n2cncn2)ccc1=O)c1ccccc1Br`, the cytotoxicity at 70.5 h was -5.84%.
`Cc1nn(C)c(C)c1S(=O)(=O)NCC1CCN(c2ccccn2)CC1`: the cytotoxicity at 70.5 h was found to be 0.358%.
The result for `Cn1cnc(S(=O)(=O)NCC2(O)CCc3ccccc3C2)c1` (configuration not stated) reads -7.71%; that for `Cn1cc(C(=O)Nc2ccc3c(c2)N(C(=O)c2ccco2)CC3)nn1`, 0.738%.
Regarding `CC(=O)N1CCc2ccc(NC(=O)c3cn(C)nn3)cc2C1`, the cytotoxicity at 70.5 h was -5.41%.
The result for `Cn1cc(C(=O)Nc2ccc3c(c2)CN(C(=O)C2CC2)CC3)nn1` reads -8.54%; that for `Cn1cc(S(=O)(=O)NCCc2ccsc2)cn1`, -6.26%.
The result for `COC(=O)N1CCC(CNS(=O)(=O)c2cnn(C)c2)CC1` reads -0.269%; that for `Cn1cc(C(=O)Nc2ccc(CC(=O)NCC(F)(F)F)cc2)nn1`, -6.55%; that for `Cc1nc(N(C)C)nc(C)c1NC(=O)c1ccco1`, -3.93%.
The result for `Cc1nc(N2CCOCC2)nc(C)c1NC(=O)COc1ccccc1` reads -1.69%; that for `COc1ccc(CC(=O)Nc2c(C)nc(N3CCOCC3)nc2C)cc1`, 1.49%; that for `CCS(=O)(=O)NCc1nc(C)cc(N2CCCCC2)n1`, -7.45%.
For the molecule `O=C(NCCNc1cc(N2CCCC2)cnn1)Nc1ccccc1F`, the cytotoxicity at 70.5 h is -2.71%.
Take `COc1ncc(NC(=O)c2ccco2)c(OC)n1`: the cytotoxicity at 70.5 h was determined as 7.73%.
With `CCOc1ncc(NC(=O)c2ccco2)c(OCC)n1`, the cytotoxicity at 70.5 h is -0.599%.
The result for `O=C(NCCn1ccc(-c2ccncc2)n1)C1CC1` reads -12%.
Turning to `CCOCC(=O)NCCn1ccc(-c2ccccn2)n1`, the cytotoxicity at 70.5 h is -4.11%.
Take `O=S(=O)(NCCn1ccc(-c2ccccn2)n1)C1CC1`: the cytotoxicity at 70.5 h was -0.0974%.
As for `O=S(=O)(NCCn1ccc(-c2cccs2)n1)C1CC1`, the cytotoxicity at 70.5 h is -0.924%.
As for `Cc1nn(C)c(C)c1S(=O)(=O)NCCn1ccc(-c2cccs2)n1`, the cytotoxicity at 70.5 h was -0.512%.
As for `Cc1cccc(CS(=O)(=O)NCc2nn(C)c3c2CCCC3)c1`, the cytotoxicity at 70.5 h was -2.52%.
The same measure for `O=C(CN1C(=O)CCC1=O)NCc1nn(C2CCCC2)c2c1CCCC2`: -2.19%; for `Cn1nc(CNC(=O)c2cccc(C(F)(F)F)c2)c2c1CCOC2`: -3.96%.
As for `Cc1ccnc(OC[C@]23COC[C@H]2CN(C(=O)Cc2ccsc2)C3)n1`, the cytotoxicity at 70.5 h is -7.56%.
Turning to `O=C(NCCc1ccncc1)[C@H]1C[C@@H]2CCN(c3nncs3)C[C@H]2O1`, the cytotoxicity at 70.5 h was -11.9%.
`Cc1cccc(CN2CC3(CCN(C(N)=O)CC3)OCC2=O)n1`: the cytotoxicity at 70.5 h is -10.4%.
As to `COCC(=O)N1CCC2(COCc3c(C)nc(N(C)C)nc32)C1` (configuration not stated), the cytotoxicity at 70.5 h is 15.4%.
In the case of `CC(C)COCC1CN(Cc2ccco2)Cc2ncn(C)c21` (configuration not stated), the cytotoxicity at 70.5 h was -6.93%.
The result for `CC(C)COCC1CN(Cc2ccsc2)Cc2ncn(C)c21` (configuration not stated) reads -9.98%.
With `CCc1cccc(NC(=O)N2CCn3cnc(COC)c3C2)c1`, the cytotoxicity at 70.5 h is -14.2%.
For the molecule `c1ccc2c(c1)SCCC2NCc1ccc(N2CCOCC2)cc1` (configuration not stated), the cytotoxicity at 70.5 h was -3.16%.
On to `Cc1cccc(NC(=O)N2CCCn3cnc(CN(C)C(C)C)c3C2)c1`, for which the cytotoxicity at 70.5 h was determined as 17.2%.
As to `Cn1ccnc1CN1CCC(F)(F)C2(CCN(c3cnccn3)C2)C1` (configuration not stated), the cytotoxicity at 70.5 h stood at 19.3%.
The same measure for `O=S(=O)(C1CC1)N1CCO[C@H]2[C@@H](Oc3ncccc3F)CC[C@@H]21`: -8.02%; for `CC(C)CN1C(=O)C2(CCN(Cc3ccsc3)C2)c2ccccc21` (configuration not stated): -13%; for `Fc1ccc(CN2CCC3(CC2)CC(c2cccnc2)CO3)cc1` (configuration not stated): -0.689%.
On to `CN1C(Cn2cccn2)C[C@@H]2CN(C(=O)c3cccc(C#N)c3)CC[C@@H]21` (some centres not stated), for which the cytotoxicity at 70.5 h was -7.79%.
Turning to `FC1(F)CCN(Cc2cccnc2)CC12CCN(c1cnccn1)C2` (configuration not stated), the cytotoxicity at 70.5 h is -12.8%.

Source of the values: ChEMBL document CHEMBL3507680, “University of Dundee, Gates Library screen for HepG2 cell viability”.
